Laboratory results: patent US20250177412A1, “SMALL-MOLECULE INHIBITORS TARGETING THE BOB1/OCT1 INTERFACE” (NANTES UNIVERSITE, priority 2022, published 2025)

Key:
[1] = test system: BOB1/OCT1-mediated transcription; assay: Luciferase reporter assay (transient transfection, 6xPORE-luc); type: cell-based, human
Experimental: FIGS. 1A-C are a combination of graphs showing that compound 005 inhibits BOB1/OCT1-mediated transcription in vitro. HEC293Ea1 cells, known to express endogenous OCT1, were co-transfected with […] reporter, pEV-OBF1 (BOB1) effector, and pCMV-β-gal calibrator plasmids. Luciferase and β-galactosidase activities were measured 48 hours after transfection. The 100% luciferase activity was set as activity in presence of vehicle (10 μM DMSO). […] All experiments are performed at least in triplicates. Bars indicate the mean±SEM. * P<0.05, ** P<0.01, *** P<0.001, **** P<0.0001.
The HEK293E1a cells were seeded at density 1.2×10^4 per well on 48-well plate in DMEM medium containing 10% fetal calf serum. After 24 hours cells were transfected with plasmid mix (300 ng/well) containing specified amounts of the p6×PORE-luc reporter, pEV-OBF1 and pCG-Oct1 effector, pBluescript II KS+ carrier, and pCMV-βgal (for standardization) as previously described. The transfections were carried out in three biological replicates, using Polyethylenimine (PEI 25K, Polysciences Inc.) at the ratio 2:1 to DNA. After 48 hours, cells were washed with PBS, lysed, and measured for luciferase activity, using the Bright-Glo luciferase assay system (Promega), and for β-galactosidase activity in a standard assay.
BOB1 has been described as a coactivator acting in cooperation with the POU-domain proteins OCT1 and OCT2 bound to distinct DNA-motifs either in monomeric or dimeric configurations. […] As an initial functional assay, we examined the ability of the compounds according to the present invention to affect BOB1-OCT1-PORE-mediated transcriptional activation in transient transfection luciferase assay. To this end, we made use of previously generated 6×PORE-luc and reporter plasmid, in which hexamers of the PORE were cloned upstream of the thymidine kinase (tk) minimal promoter and luciferase gene. […] Furthermore, the addition of a plasmid expressing exogenous OCT1 exerted an inhibitory effect on both basal and BOB1-mediated transcription (data not shown). This observation is likely due to the fact that HEK293 cells, like all other mammalian cell types, express OCT1, and further addition of exogenous OCT1 in these cells shifts the BOB1/OCT1 equilibrium out of optimal range, resulting in squelching effect, and in our experimental setup, in about 3-fold stimulation, as compared to that by endogenous OCT1 alone (FIG. 1A). […] Compound 005 was selected for further detailed investigation.

NIH3T3 cells = assay: MTT assay; type: cell-based; details: data not shown
memory B cells = assay: High-throughput multiplex qPCR of B-cell-related genes; type: cell-based, human; details: 10 μM
Experimental: FIGS. 4A-AA are a combination of heatmap plot and graphs showing expression of B-cell-related genes at day 4 and day 7 of the human B cell differentiation in vitro model in the presence of 0 μM and 10 μM of the compound 005 (n=6). Experimental conditions are as described in the FIG. 3. […] FIG. 4B-AA show expression of the selected genes at day 4 related to proliferation (FIG. 4B-D), plasma-cell differentiation (FIG. 4E-I), immunoglobulin isotype switching (FIG. 4J-M), B-cell identity (FIG. 4N-S), and B-cell activation (FIG. 4T-AA).

PBMCs = assay: T cell recall assay (qPCR and intracellular staining); type: cell-based, human
Experimental: Total PBMCs were plated into 96-well round-bottom plates at 0.5×10^6 cells/well and were stimulated with anti-CD3/CD28 Dynabeads (Gibco Life Technologies) at a bead/cell ratio of 0.2:1 in the presence of compound 005 (10 μM) or vehicle (DMSO) for 6 hours to induce polyclonal primary responses. To induce recall responses, cells were stimulated with beads for two days, allowed to rest for eight days in medium supplemented with IL-2 (10 U/mL) and re-stimulated with anti-CD3/CD28 beads for the last 6 hours in the presence of compound 005 ([…]) or vehicle. Expression of Th1-, Th2-, Th17-, and Treg-associated cytokines and transcription factors was assessed by qPCR. For intracellular staining, cells were re-stimulated for 10 hours with anti-CD3/CD28 beads, and Brefeldin A (10 μg/mL, Sigma) was added to the medium 4 hours after the start of re-stimulation. Dead cells were excluded using the LIVE/DEAD® Fixable Aqua Dead Cell Stain Kit (Life Technologies). Subsequently, cells were surface-stained with CD3-BUV395, CD4-BUV737, CD8-Violet650 (all three from BDHorizon), and CD161-PE-Cy7 (from Biolegend) at 4° C. for 30 min, followed by incubation with Fixation/Permeabilization working solution (eBioscience), washed with Permeabilization Buffer and stained with IL-17A-PE and IFNγ-BV711 (both from BD Biosciences). Cells were resuspended in ice-cold FACS buffer (0.5% BSA, 2 mM EDTA and 50 U/mL penicillin/streptomycin in PBS). Flow cytometry data were collected on BD FACSCelesta™ and analyzed using FlowJo™ cell analysis software (FlowJo, LLC).
Total RNA was extracted from PBMCs using the RNeasy Micro Kit (Qiagen) according to the manufacturer's protocol. RNA was processed for cDNA synthesis (Fermentas) and analyzed by qPCR with TaqMan gene expression assays for IFNG (Hs00989291_m1), IL-2 (Hs00174114_m1), TNF (Hs00174128_m1), TBX21 (Hs00203436_m1), IL-4 (Hs00174122_m1), GATA3 (Hs00231122_m1), IL-17A (Hs00174383_m1), IL-17F (Hs00369400_m1), IL-21 (Hs00222327_m1), IL-22 (Hs01574154_m1), RORC (Hs01076122_m1), IL-10 (Hs00961622_m1), FOXP3 (Hs01085834_m1), POU2AF1 (Hs01573371_m1) (Thermofisher) using Real-Time PCR QuantStudio3 PCR System (Applied Biosystems). Expressions of all genes were normalized to the expression of GAPDH (4310884E) as housekeeping gene and presented as fold change relative to the reference sample.

SMILES: Cc1ccc(NC(=O)C2CN(c3nc(NCCCc4ccc(F)cc4)nc(NCCC(=O)O)n3)c3ccccc3O2)cc1Cl (stereo not drawn) [compound 005, 3-((4-(2-((3-chloro-4-methylphenyl)carbamoyl)-2,3-dihydro-4H-benzo[b][1,4]oxazin-4-yl)-6-((3-(4-fluorophenyl)propyl)amino)-1,3,5-triazin-2-yl)amino)propanoic acid]
- BOB1/OCT1-driven transcription (relative luciferase activity) ([1]; 10 μM in the culture medium): significantly attenuated
- suppression of transcriptional activation ([1]; concentration range from 0.5 to 40 μM): dose-dependent manner
- concentration showing toxicity (NIH3T3 cells): ≥ 80 µM
- expression of genes related to the B cell identity and activation (memory B cells): upregulated
- expression of plasma cell related genes (memory B cells): suppressed
- TNF expression (PBMCs; initial activation, 6 hours-stimulated cells, 10 μM, data not shown): significant decrease
- IL-17A mRNA, median percentage decrease (PBMCs; re-stimulated (recall) cells): 43%
- IL-17F mRNA, median percentage decrease (PBMCs; re-stimulated (recall) cells): 27%
- expression of IL-17A by CD4+ T cells (protein, intracellular staining) (PBMCs; re-stimulated cells): suppressed
